# In article PMC7274539, “The selective glucocorticoid receptor antagonist CORT125281 has tissue-specific activity” (The Journal of Endocrinology, 2020):
# Columns and labels:
# GR activity in the brain = assay: In situ hybridization of Gilz mRNA, Fkbp5 hnRNA, Nr3c1 and Nr3c2 in hippocampus and PVN; assay type: in vivo, C57Bl/6J mice
# Protocol: (§1) All studies involving animals were approved by the institutional ethics committee on animal care and experimentation at the Leiden University Medical Center. The 8-week old male C57Bl/6J mice (Charles River) were housed in ventilated cages with a 12 h light:12 h darkness regime and ad libitum access to food and water. In the acute corticosterone exposure experiments, mice received a synthetic chow diet (Research Diets, New Brunswick, NJ, USA) containing vehicle or CORT125281 (6, 20 or 60 mg/kg/day, Corcept Therapeutics, Menlo Park, CA, USA) for 6 days. […] Mice were treated daily with vehicle, 60 mg/kg mifepristone (Corcept Therapeutics) or 60 mg/kg CORT125281 (dissolved in PBS with 0.1% Tween 80 and 0.5% hydroxypropylmethylcellullose, Corcept Therapeutics) via oral gavage for 5 days, after which mice were killed by CO2 inhalation. Throughout the experiment, body weight was monitored and body composition was determined with EchoMRI™ (Frankfurt, Germany). After 5 days, blood was collected from the lateral tail vain in paraoxon-coated capillaries after a 6-h fast. Plasma triglyceride, total cholesterol, free fatty acid, glucose and insulin levels were determined using commercially available kits (Roche; Instruchemie, Delfzijl, Netherlands and Crystal Chem, Zaandam, Netherlands). Blood concentrations of the major leukocyte classes, that is, lymphocytes, monocytes and eosinophils, were determined in whole blood using an automatic veterinary hematology analysis (Sysmex XT-2000iV; Goffin Meyvis, Etten-Leur, the Netherlands).
# For dual label in situ hybridization, frozen unfixed pituitaries were embedded in tissue-tek OCT (Sakura Finetek, Alphen aan den Rijn, Netherlands), sliced (12 µm) and collected on glass slides (Superfrost Plus, Thermo Fisher Scientific). Dual label in situ hybridization was performed using the QuantiGene ViewRNA ISH Tissue 2-Plex Assay (Thermo Fisher Scientific) and pictures were captured with a wide-field microscope (DM6B, Leica Microsystems). For 4-plex in situ hybridization, frozen, unfixed brain slices (12 µm) were collected on glass slides at bregma −0.772 mm (PVN) and −1.532 mm (hippocampus). 4-plex in situ hybridization was performed using the RNAScope fluorescent multiplex assay and RNAscope 4-plex ancillary kit (Advanced Cell Diagnostics, Newark, CA, USA) and Opal fluorophores 520, 570, 620 and 690 (PerkinElmer). Pictures were captured with a confocal microscope (SP8 WLL, Leica Microsystems). All pictures were analysed with ImageJ Software (NIH).
# [1] = molecular target: T1, human GR ligand-binding domain (Homo sapiens, UniProt P04150); assay: MARCoNI peptide interaction profiling (coregulator-nuclear receptor interaction); assay type: biochemical; settings: CORT125281 1 µM
# T1 construct: purchased Invitrogen PV4689
# T1 sequence (P04150 524-758 limits assumed): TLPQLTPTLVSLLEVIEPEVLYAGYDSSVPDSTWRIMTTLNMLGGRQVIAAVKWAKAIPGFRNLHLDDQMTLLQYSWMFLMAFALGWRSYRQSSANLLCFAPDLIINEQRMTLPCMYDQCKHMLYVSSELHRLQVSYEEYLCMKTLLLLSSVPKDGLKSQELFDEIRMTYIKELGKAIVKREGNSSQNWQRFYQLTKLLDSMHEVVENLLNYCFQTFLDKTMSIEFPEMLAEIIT
# Protocol: As the assay utilizes human GR, experiments were performed with cortisol rather than corticosterone. […] Incubation was performed at 20°C in a PamStation96 (PamGene International, Den Bosch, Netherlands) for 40 min. Receptor binding to each peptide on the array, reflected by a fluorescent signal, was quantified by analysis of .tiff images using BioNavigator software (PamGene International).
# male C57Bl/6J mice [2] = assay: Subchronic corticosterone exposure (pellet): body composition, organ weights, leukocytes, plasma insulin, glucose, lipids; assay type: in vivo; settings: corticosterone pellet 5 days, 60 mg/kg/day oral gavage
# Protocol: as §1
# In both acute and subchronic corticosterone experiments, relevant tissues (including quadriceps muscle, interscapular BAT, gonadal white adipose tissue (WAT), adrenals, spleen, thymus, pituitary and hippocampus) were collected to determine tissue weight and/or for further molecular analysis.
# male C57Bl/6J mice [3] = assay: Body weight, food intake and immune cell counts under CORT125281 via the diet; assay type: in vivo; settings: for body weight / food intake: 6 days
# Protocol: as §1
# GR [4] = tested on: GR; design: method as in Lahteenmaki et al. 1987, Kroon et al. 2018; settings: half maximal inhibitory concentration of the GR antagonist; ref Lahteenmaki et al. 1987, Kroon et al. 2018; cited from earlier work
# GR [5] = settings: ref Kroon et al. 2018; cited from earlier work
# other nuclear receptors = tested on: other nuclear receptors; design: method as in Kroon et al. 2018; settings: ref Kroon et al. 2018; cited from earlier work
# [6] = 20 mg/kg/day CORT125281 6 days, corticosterone injection 1 h
smiles,measurement,setting,value
Cn1ncc(S(=O)(=O)N2CC[C@H]3Cc4c(cnn4-c4ccc(F)cc4)C[C@]3(C(=O)c3cc(C(F)(F)F)ccn3)C2)n1 [CORT125281],Nr3c1 (Gr) mRNA levels in the hippocampus,GR activity in the brain; [6],Neither corticosterone nor CORT125281 affected
same,Nr3c1 or Nr3c2 expression in the PVN,GR activity in the brain; [6],Neither corticosterone nor CORT125281 affected
same,basal mineralocorticoid receptor (MR; Nr3c2) mRNA expression in the hippocampus,GR activity in the brain; 6-20 mg/kg/day,increased
same,corticosterone-induced Fkbp5 hnRNA and Gilz mRNA levels in the PVN,GR activity in the brain; 6-20 mg/kg/day,had little effect
same,corticosterone induction of Gilz mRNA and Fkbp5 hnRNA in hippocampal subfields,"GR activity in the brain; 6-20 mg/kg/day, corticosterone 1 h before tissue collection",did not prevent this induction
same,basal levels of Fkbp5 hnRNA in CA2 and CA3 regions,"GR activity in the brain; 6-20 mg/kg/day, hippocampus",upregulated
same,hierarchal clustering of ligand-induced GR-coregulator response profile,[1],clustered with that of mifepristone
same,number of coregulator motifs recruited compared to mifepristone,[1],tended to recruit fewer motifs
same,binding of corepressor motifs of NCOR1 and NCOR2 (SMRT) by ligand-GR complex,[1]; mifepristone 0.1 µM,only very modestly
same,HOMA-IR,male C57Bl/6J mice [2],improved
same,corticosterone-induced alteration in body weight (BW) gain,male C57Bl/6J mice [2],did not prevent
same,"corticosterone-induced hyperlipidaemia (plasma triglycerides, total cholesterol)",male C57Bl/6J mice [2],seemed to modestly reduce
same,free fatty acid levels,male C57Bl/6J mice [2],did not affect
same,glucose levels,male C57Bl/6J mice [2],improved
same,lean mass (reduced by corticosterone),male C57Bl/6J mice [2],not altered
same,thymus weight,male C57Bl/6J mice [2],did not prevent
same,corticosterone-induced hyperinsulinemia,male C57Bl/6J mice [2]; 6-h fast,partially prevented
same,"immune counts (WBC, lymphocytes, monocytes, eosinophils)","male C57Bl/6J mice [3]; 60 mg/kg/day via diet 6 days, without excess corticosterone exposure",did not alter
same,body weight,male C57Bl/6J mice [3]; 60 mg/kg/day via food,did not alter
same,food intake,male C57Bl/6J mice [3]; 60 mg/kg/day via food,did not alter
same,body weight,male C57Bl/6J mice [3]; 6 and 20 mg/kg/day via food,did not alter
same,food intake,male C57Bl/6J mice [3]; 6 and 20 mg/kg/day via food,did not alter
same,IC50,GR [4],427 nM
same,partial agonism at GR in reporter assays,GR [5],very low partial agonism
same,cross-reactivity with other nuclear receptors,other nuclear receptors,lacks cross-reactivity
